# In patent US12083196B2, “Personal cleansing compositions with surfactants for increased foam performance” (ECOLAB USA INC., priority 2020, dated 2024):
# Assay: SITA Foam Analyzer foam creation
# Assay type: physicochemical
# Source text: The reagents used below include: • Alpha-Step® PC-48 is a C10-16 sodium methyl 2-sulfolaurate and disodium 2-sulfolaurate available from Stepan; • Stepan-Mild® L3 is a predominantly C12 reaction product of lauryl alcohol and lactic acid available from Stepan; • SLES is sodium laureth sulfate; • Cola® Teric is an amphoteric sultaine available from Colonial Chemical, Inc.; • Glucopon® […] is an alkyl polyglycoside available from BASF Corporation; • Suga® Nate is a sodium laurylglucosides hydrooxypropylsulfonate available from Colonial Chemicals, Inc; • Lathanol® LAL is a sodium lauryl sulfoacetate available from Stepan. All experiments ran through the SITA Foam Analyzer were as follows: Equipment: • 1) Foaming Apparatus • 2) SITA Software Reagents: • 1) 250 mL of each solution • 2) DI water Preparation: Equipment is prepared by turning the water bath on with ample time to warm up before running tests. Adjust water bath to desired temperature. Quality Assurance: Run a positive and negative control for every experiment. Ensure equipment is clean and free from any residual surfactant chemistry beforehand. In each experiment set, proper differentiation between chemistries can be seen if at least one of the tested chemistries has an “S” curve that depicts a change in the initial foam building and the lathering step. Experimental Procedure: • 1) Prepare water bath • 2) Open the “SITA-foam” software on the computer. […] Foam Generation • i. Series Count (cycles): number of measurement replicates (3-triplicate) • ii. Fill With: Volume of sample liquid (250 mL for each test) • iii. Stir Count: Number of stirrings for each test (70). This is also the number of measurements for each cycle. • iv. Stir Time: Stirring duration of sample (10 sec) • v. Revolution: RPM o the stirrer (900 RMP) • b. Cleansing • i. Click the shower icon to activate the automatic cleansing and rinsing function. The vessel will be cleaned automatically after each cycle of measurements. • ii. Normal cleansing will rinse out the vessel many times. Small cleansing indicates a faster cleansing process. All above parameters can be saved • 5) After setting the parameters, click on “Start Measurement” which is the green “Play” button to proceed with the experiment • 6) After each cycle of experiments automatic cleansing and rinsing is done in preparation for the next cycle of measurements as long as the instrument is connected to tap water or a cleansing liquid reservoir • 7) Each click on the green “Start Measurement” icon opens a new window. The current sample measurement results are all in the same project folder. To rename sample measurement files, right click on the open sample window, and click “save” to rename your sample file • 8) If an error occurs at any point with your sample, the measurement reading can be stopped by clicking the red square “Stop icon” or by pressing the large red button on the machine • 9) Organize the graph generated with the icons in the fourth section of the tool bar: create new plot, add/remove data from plot, change axis properties, and view properties. Click on the “Create new plot” icon to view the plot after the experiment is done or if it is still running. Right click to rename the plot, insert or remove the plot and display the foam buildup, foam decay, or both Establishing initial foaming of the single surfactants is important to establish baselines for comparison for the combinations of various surfactants. To establish the foaming properties of single surfactants, a high amount of each surfactant was analyzed in the SITA Foam Analyzer as described above. The final concentration of each surfactant in solution was 1%. The surfactants tested were sodium lauryl sulfate (SLES), a betaine, Cola® Teric CBS, Glucopon® […], Lathanol® LAL, and Suga® Nate 160NC. […] The compositions were tested for foaming using the SITA Foam Analyzer as described above. […]
substance,measurement,setting,value
sodium laureth sulfate [SLES],ability to reach saturation of foam (in words),"SLES 0.2 wt. %, second surfactant 0.005 wt. %, FIG. 3",unable to reach saturation
same,foam height,"cycle 0, SLES 0.2 wt. %, second surfactant 0.005 wt. %",0 mL
same,foam height,"cycle 1, SLES 0.2 wt. %, second surfactant 0.005 wt. %",147.3 mL
same,foam height,"cycle 2, SLES 0.2 wt. %, second surfactant 0.005 wt. %",161 mL
same,foam height,"cycle 3, SLES 0.2 wt. %, second surfactant 0.005 wt. %",168.3 mL
same,foam height,"cycle 4, SLES 0.2 wt. %, second surfactant 0.005 wt. %",172.67 mL
same,foam height,"cycle 5, SLES 0.2 wt. %, second surfactant 0.005 wt. %",174 mL
same,foam height,"cycle 6, SLES 0.2 wt. %, second surfactant 0.005 wt. %",177 mL
same,foam height,"cycle 7, SLES 0.2 wt. %, second surfactant 0.005 wt. %",185.67 mL
same,foam height,"cycle 8, SLES 0.2 wt. %, second surfactant 0.005 wt. %",188.3 mL
same,foam height,"cycle 9, SLES 0.2 wt. %, second surfactant 0.005 wt. %",193.67 mL
same,foam height,"cycle 10, SLES 0.2 wt. %, second surfactant 0.005 wt. %",200 mL
same,foam height,"cycle 11, SLES 0.2 wt. %, second surfactant 0.005 wt. %",202.3 mL
same,foam height,"cycle 12, SLES 0.2 wt. %, second surfactant 0.005 wt. %",204.67 mL
same,foam height,"cycle 13, SLES 0.2 wt. %, second surfactant 0.005 wt. %",210 mL
same,foam height,"cycle 14, SLES 0.2 wt. %, second surfactant 0.005 wt. %",213 mL
same,foam height,"cycle 15, SLES 0.2 wt. %, second surfactant 0.005 wt. %",217 mL
same,foam height,"cycle 16, SLES 0.2 wt. %, second surfactant 0.005 wt. %",219.3 mL
same,foam height,"cycle 17, SLES 0.2 wt. %, second surfactant 0.005 wt. %",221.3 mL
same,foam height,"cycle 18, SLES 0.2 wt. %, second surfactant 0.005 wt. %",222.67 mL
same,foam height,"cycle 19, SLES 0.2 wt. %, second surfactant 0.005 wt. %",224.3 mL
same,foam height,"cycle 20, SLES 0.2 wt. %, second surfactant 0.005 wt. %",227.67 mL
same,foam height,"cycle 21, SLES 0.2 wt. %, second surfactant 0.005 wt. %",228.3 mL
same,foam height,"cycle 22, SLES 0.2 wt. %, second surfactant 0.005 wt. %",231 mL
same,foam height,"cycle 23, SLES 0.2 wt. %, second surfactant 0.005 wt. %",232.67 mL
same,foam height,"cycle 24, SLES 0.2 wt. %, second surfactant 0.005 wt. %",234.3 mL
same,foam height,"cycle 25, SLES 0.2 wt. %, second surfactant 0.005 wt. %",235.3 mL
same,foam height,"cycle 26, SLES 0.2 wt. %, second surfactant 0.005 wt. %",237 mL
same,foam height,"cycle 27, SLES 0.2 wt. %, second surfactant 0.005 wt. %",237.67 mL
same,foam height,"cycle 28, SLES 0.2 wt. %, second surfactant 0.005 wt. %",239 mL
same,foam height,"cycle 29, SLES 0.2 wt. %, second surfactant 0.005 wt. %",239.67 mL
same,foam height,"cycle 30, SLES 0.2 wt. %, second surfactant 0.005 wt. %",240 mL
same,foam height,"cycle 31, SLES 0.2 wt. %, second surfactant 0.005 wt. %",240.67 mL
same,foam height,"cycle 32, SLES 0.2 wt. %, second surfactant 0.005 wt. %",241.3 mL
same,foam height,"cycle 33, SLES 0.2 wt. %, second surfactant 0.005 wt. %",242.3 mL
same,foam height,"cycle 34, SLES 0.2 wt. %, second surfactant 0.005 wt. %",243 mL
same,foam height,"cycle 35, SLES 0.2 wt. %, second surfactant 0.005 wt. %",243 mL
same,foam height,"cycle 36, SLES 0.2 wt. %, second surfactant 0.005 wt. %",243.67 mL
same,foam height,"cycle 37, SLES 0.2 wt. %, second surfactant 0.005 wt. %",244 mL
same,foam height,"cycle 38, SLES 0.2 wt. %, second surfactant 0.005 wt. %",245.3 mL
same,foam height,"cycle 39, SLES 0.2 wt. %, second surfactant 0.005 wt. %",245 mL
same,foam height,"cycle 40, SLES 0.2 wt. %, second surfactant 0.005 wt. %",245 mL
same,foam height,"cycle 41, SLES 0.2 wt. %, second surfactant 0.005 wt. %",245.67 mL
same,foam height,"cycle 42, SLES 0.2 wt. %, second surfactant 0.005 wt. %",246 mL
same,foam height,"cycle 43, SLES 0.2 wt. %, second surfactant 0.005 wt. %",246 mL
same,foam height,"cycle 44, SLES 0.2 wt. %, second surfactant 0.005 wt. %",246.67 mL
same,foam height,"cycle 45, SLES 0.2 wt. %, second surfactant 0.005 wt. %",246.67 mL
same,foam height,"cycle 46, SLES 0.2 wt. %, second surfactant 0.005 wt. %",246.67 mL
same,foam height,"cycle 47, SLES 0.2 wt. %, second surfactant 0.005 wt. %",247 mL
same,foam height,"cycle 48, SLES 0.2 wt. %, second surfactant 0.005 wt. %",247.67 mL
same,foam height,"cycle 49, SLES 0.2 wt. %, second surfactant 0.005 wt. %",247.67 mL
same,foam height,"cycle 50, SLES 0.2 wt. %, second surfactant 0.005 wt. %",248 mL
same,foam height,"cycle 51, SLES 0.2 wt. %, second surfactant 0.005 wt. %",248.67 mL
same,foam height,"cycle 52, SLES 0.2 wt. %, second surfactant 0.005 wt. %",248.67 mL
same,foam height,"cycle 53, SLES 0.2 wt. %, second surfactant 0.005 wt. %",248.67 mL
same,foam height,"cycle 54, SLES 0.2 wt. %, second surfactant 0.005 wt. %",250 mL
same,foam height,"cycle 55, SLES 0.2 wt. %, second surfactant 0.005 wt. %",250.3 mL
same,foam height,"cycle 56, SLES 0.2 wt. %, second surfactant 0.005 wt. %",251.3 mL
same,foam height,"cycle 57, SLES 0.2 wt. %, second surfactant 0.005 wt. %",250.3 mL
same,foam height,"cycle 58, SLES 0.2 wt. %, second surfactant 0.005 wt. %",250 mL
same,foam height,"cycle 59, SLES 0.2 wt. %, second surfactant 0.005 wt. %",251 mL
same,foam height,"cycle 60, SLES 0.2 wt. %, second surfactant 0.005 wt. %",251.3 mL
same,foam height,"cycle 61, SLES 0.2 wt. %, second surfactant 0.005 wt. %",251.67 mL
same,foam height,"cycle 62, SLES 0.2 wt. %, second surfactant 0.005 wt. %",252.67 mL
same,foam height,"cycle 63, SLES 0.2 wt. %, second surfactant 0.005 wt. %",252 mL
same,foam height,"cycle 64, SLES 0.2 wt. %, second surfactant 0.005 wt. %",253 mL
same,foam height,"cycle 65, SLES 0.2 wt. %, second surfactant 0.005 wt. %",253.67 mL
same,foam height,"cycle 66, SLES 0.2 wt. %, second surfactant 0.005 wt. %",253.67 mL
same,foam height,"cycle 67, SLES 0.2 wt. %, second surfactant 0.005 wt. %",253.67 mL
same,foam height,"cycle 68, SLES 0.2 wt. %, second surfactant 0.005 wt. %",253 mL
same,foam height,"cycle 69, SLES 0.2 wt. %, second surfactant 0.005 wt. %",253 mL
same,foam height,"cycle 70, SLES 0.2 wt. %, second surfactant 0.005 wt. %",254 mL
same,onset of foam saturation (in words),"single surfactant, 1%, FIG. 1",taking the longest to reach saturation
